Experimental data: US20230147455A1, “COMPOUNDS FOR THE PROPHYLAXIS AND/OR TREATMENT OF ACUTE RESPIRATORY DISTRESS SYNDROME” (SERVICIO ANDALUZ DE SALUD, priority 2020, published 2023)
Read-outs that look alike come from different tables or passages of the source.

Assays:
renin and Ang II = conditions: rat lung tissues treated with lipopolysaccharide; cited from earlier work
[1] = phase III study conducted in 2000; cited from earlier work
[2] = patients with ALI and ARDS; cited from earlier work
[3] = in vivo; cited from earlier work
SARS-CoV-2 = assay: Pilot randomized clinical trial: ICU admission of hospitalized patients with or without calcifediol; format: in vivo; conditions: calcifediol YES group, 42 patients
Method: Preliminary study performed from 10 Mar. 2020 on 72 patients admitted in pneumology department at Hospital Universitario Reina Sofia in Cordoba, according to hospital protocol.
Administration of vitamin D (calcifediol):
The difference is statistically significant: Chi-squared with Yates' correction p=0.0001.
As shown in the results, progression of the disease requiring admission to the ICU occurred in only 1 of all the patients who were treated with calcifediol.

COVID-19 = assay: Retrospective multicenter cohort study of patients hospitalized with COVID-19, intrahospital mortality; format: in vivo, human
[4] = 14 clinical trials with 1303 patients; cited from earlier work
[5] = cited from earlier work

C=C1/C(=C\C=C2/CCC[C@]3(C)[C@@H]([C@H](C)CCCC(C)(C)O)CC[C@@H]23)C[C@@H](O)C[C@@H]1O [Calcitriol, 1-alpha,25-dihydroxycholecalciferol]
expression of renin and Ang II (renin and Ang II): suppresses the expression of renin and Ang II

CC(=O)N1CCN(c2ccc(OCC3COC(Cn4ccnc4)(c4ccc(Cl)cc4Cl)O3)cc2)CC1 (centres unmarked) [Ketoconazole]
mortality and secondary outcome measures [1]: did not show any improvement in mortality or in secondary outcome measures

CC(=O)N[C@@H](CS)C(=O)O [N-acetylcysteine]
mortality benefit [2]: have not shown any mortality benefits

C[C@H](/C=C/[C@H](C)C(C)(C)O)[C@H]1CC[C@H]2/C(=C/C=C3C[C@@H](O)C[C@H](O)C3)CCC[C@]12C [Paricalcitol, 19-nor-1,25-(OH)2-vitamin D2]
effect on LPS-induced acute lung injury [3]: improved the LPS-induced acute lung injury or SARS by maintaining the alveolar barrier function

C=C1CC[C@H](O)C/C1=C/C=C1\CCC[C@]2(C)[C@@H]([C@H](C)CCCC(C)(C)O)CC[C@@H]12 [calcifediol, 25-hydroxycholecalciferol]
ICU NO (number of patients not admitted to the ICU) (SARS-CoV-2): 41 | ICU YES (number of patients admitted to the ICU) (SARS-CoV-2; vs 13 of 30 without calcifediol, Chi-squared with Yates' correction p=0.0001): 1 | mortality rate (COVID-19; 79 hospitalized COVID-19 patients who received calcifediol, vs 20.7% without, p <0.001): 5.1% | HR for mortality (COVID-19; fitted Cox proportional hazards models, calcifediol vs no calcifediol): 0.17 (95% CI: 0.05 to 0.51) | death OR (COVID-19; patients who received calcifediol compared with patients who did not): 0.20 (95% CI, 0.07 to 0.57) | reduction of ICU admissions and death by process (COVID-19; patients with COVID-19, general statement at head of Example 2): at least 25%

nitric oxide [inhaled NO]
oxygenation, survival, days off a ventilator [4]: only a temporary improvement in oxygenation without the benefit of survival or an increase in days off a ventilator

vitamin D
mortality at 28 days ([5]; by intramuscular or intravenous injection, vs placebo 40.8%): 25.6% | OR, mortality at 28 days ([5]; grouped analysis of the 9 RCTs, 95% CI 0.46-1.15): 0.73 | mortality at 28 days ([5]; grouped analysis of the 9 RCTs, vs placebo 21.7%): 20.4% | OR, mortality at 28 days ([5]; high daily dose, CI 95% 0.51-1.36): 0.83 | mortality at 28 days ([5]; high daily dose, vs placebo 19.8%): 20.9% | OR, mortality at 28 days ([5]; low daily dose, 95% CI 0.32-1.68): 0.74 | mortality at 28 days ([5]; low daily dose, vs placebo 21.3%): 15.6% | OR, mortality at 28 days ([5]; only enterally, 95% CI 0.88-1.57): 1.19 | mortality at 28 days ([5]; only enterally, vs placebo 18.2%): 19.9% | duration of the stay in the ICU, standard mean difference [SMD] ([5]; vitamin D vs placebo, 95% CI −0.61 to 0.01): −0.30 | duration of hospital stay, SMD ([5]; vitamin D vs placebo): −0.17 | duration of mechanical ventilation, SMD ([5]; vitamin D vs placebo): −0.41
